# Measurements: patent US20260078099A1, “COMPOUND, PREPARATION METHOD THEREOF, AND LIPID NANOPARTICLE AND PHARMACEUTICAL COMPOSITION” (priority 2023, published 2026)
# Key:
# [1] = LNP encapsulation efficiency (Quant-it Ribogreen); format: physicochemical; conditions: mRNA LNP, cationic lipid/DSPC/cholesterol/PEG-lipid 50:10:38.5:1.5
# Source text: Encapsulation Efficiency: The encapsulation efficiency of a therapeutic and/or prophylactic agent refers to the amount of the therapeutic and/or prophylactic agent encapsulated within or otherwise associated with the nanoparticle composition relative to the initial amount provided during preparation. Encapsulation efficiency is desirably high (such as close to 100%). Encapsulation efficiency can be measured, for example, by comparing the amount of therapeutic and/or prophylactic agent in a solution containing the nanoparticle composition before and after disruption of the nanoparticle composition using one or more organic solvents or detergents. Fluorescence can be used to measure the amount of free therapeutic and/or prophylactic agent (e.g., RNA) in solution. For the nanoparticle compositions described herein, the encapsulation efficiency of the therapeutic and/or prophylactic agent may be at least 50%, such as 50%, 55%, 60%, 65%, 70%, 75%, 80%, 85%, 90%, 91%, 92%, 93%, 94%, 95%, 96%, 97%, 98%, 99%, or 100%. In some embodiments, the encapsulation efficiency may be at least 80%. In certain embodiments, the encapsulation efficiency may be at least 90%.
# (§1) In summary, the cationic lipid described herein, DSPC, cholesterol, and PEG-lipid were dissolved in ethanol at a molar ratio of 50:10:38.5:1.5 and diluted in 10 mM to 50 mM citrate buffer at pH 4 with mRNA. Using a microfluidic device, the lipid ethanol solution was mixed with mRNA aqueous solution at a volume ratio of 1:3 and a total flow rate ranging from 6-30 mL/min, preparing LNPs with a total lipid to mRNA weight ratio of approximately 10:1 to 30:1. Ethanol was removed by dialysis and replaced with PBS. Finally, the lipid nanoparticles were filtered through a 0.22 μm sterile filter.
# (§2) The size of lipid nanoparticles was measured by dynamic light scattering using a Malvern Zetasizer Nano ZS (Malvern, UK) with a 90° scattering detection mode. The encapsulation efficiency of lipid nanoparticles was determined using the Quant-it Ribogreen RNA Quantitation Kit (Thermo Fisher Scientific, UK) according to the manufacturer's instructions. The apparent pKa of LNP formulations correlates with the delivery efficiency of nucleic acids by LNPs in vivo. The apparent pKa ranges from approximately 5 to 7. An analysis based on fluorescence from 2-(p-tolylamino)-6-naphthalenesulfonic acid (TNS) was used to determine the apparent pKa of formulations. As described above, LNP formulations containing cationic lipid/DSPC/cholesterol/DMG-PEG (50/10/38.5/1.5 mol %) in PBS were prepared. A 300 μM stock solution of TNS in distilled water was prepared. LNP formulations were diluted to 0.1 mg/mL total lipid in 3 mL of buffer solution containing 50 mM sodium citrate, 50 mM sodium phosphate, 50 mM sodium borate, and 30 mM sodium chloride (pH ranged from 3 to 9). […] S-shaped curve best-fit analysis was applied to the fluorescence data, and the pKa value was measured as the pH value producing half-maximal fluorescence intensity.
# mice = assay: Bioluminescent study, intramuscular injection of F-luc mRNA LNPs; format: in vivo; conditions: F-luc luminescence flux normalized to MC3; 0.25 mg/kg intramuscular, mice n=3, 6-hour time point
# Description: The efficacy of nanoparticle compositions was evaluated using bioluminescent studies. A dose of 0.25 mg/kg (mpk) of the formulation was administered to mice (n=3) via intramuscular injection, and bioluminescence was measured at a 6-hour time point. The test lipid nanoparticles from the MC3 formulation were evaluated, and in some cases, controls (e.g., PBS controls) were assessed for comparison.
# The characteristics of the test lipid nanoparticles measured from the test groups, including F-luc luminescence intensity, are listed in the table below.
# [2] = LNP size and PDI by dynamic light scattering; format: physicochemical; conditions: mRNA LNP, cationic lipid/DSPC/cholesterol/PEG-lipid 50:10:38.5:1.5
# Description: as §1, §2
# LNP zeta potential = format: physicochemical; conditions: mRNA LNP
# Source text: Nanoparticle compositions can be characterized by various methods. For example, the morphology and size distribution of nanoparticle compositions can be examined using microscopy (e.g., transmission electron microscopy or scanning electron microscopy). The zeta potential can be measured using dynamic light scattering or potentiometric titration. Dynamic light scattering can also be used to determine particle size. Instruments such as the Zetasizer Nano ZS (Malvern Instruments Ltd., Malvern, Worcestershire, UK) can also be used to measure multiple characteristics of nanoparticle compositions, such as particle size, polydispersity index, and zeta potential.
# […]: The zeta potential of the nanoparticle composition can indicate the electrophoretic potential of the composition. For example, zeta potential may describe the surface charge of the nanoparticle composition. Nanoparticle compositions with relatively low positive or negative charges are generally desirable, as materials with higher charges may interact undesirably with cells, tissues, and other components in the body. In some embodiments, the zeta potential of the nanoparticle composition may be about −10 mV to about +20 mV, about −10 mV to about +15 mV, about −10 mV to about +10 mV, about −10 mV to about +5 mV, about −10 mV to about 0 mV, about −10 mV to about −5 mV, about −5 mV to about +20 mV, about −5 mV to about +15 mV, about −5 mV to about +10 mV, about −5 mV to about +5 mV, about −5 mV to about 0 mV, about 0 mV to about +20 mV, about 0 mV to about +15 mV, about 0 mV to about +10 mV, about 0 mV to about +5 mV, about +5 mV to about +20 mV, about +5 mV to about +15 mV, or about +5 mV to about +10 mV.
Encapsulation efficiency (%) [1] [%],PDI [2],Size (nm) [2] [nm],Zeta potential (mV) (LNP zeta potential),Structure (SMILES),Relative Total flux (mice)
94.69,0.10,79.84,0.51,CCCCCCCCNC(=O)C(CCCCCCCC)N(CCCN(CC)CC)C(=O)CCCCCCC(=O)OC(CCCCCCCC)CCCCCCCC (stereo not shown) [Compound A33],A (A: ≥2)
95.23,0.11,94.21,2.08,CCCCCCCCNC(=O)C(CCCCCCCC)N(CCC1CCCN1C)C(=O)CCCCCCC(=O)OC(CCCCCCCC)CCCCCCCC (stereo not shown) [Compound A34],A (A: ≥2)
97.34,0.19,74.92,−7.81,CCCCCCCCNC(=O)C(CCCCCCCC)N(CCCCN(C)C)C(=O)CCCCCCC(=O)OC(CCCCCCCC)CCCCCCCC (stereo not shown) [Compound A35],A (A: ≥2)
92.48,0.17,79.52,−1.82,CCCCCCCCNC(=O)C(CCCCCCCC)N(CCCN1CCCC1)C(=O)CCCCCCC(=O)OC(CCCCCCCC)CCCCCCCC (stereo not shown) [Compound A36],A (A: ≥2)
93.54,0.17,75.94,−0.97,CCCCCC/C=C\CCCCCCCC(C(=O)NCCCCCC)N(CCCN(C)C)C(=O)CCCCCCC(=O)OC(CCCCCCCC)CCCCCCCC (stereo not shown) [Compound A40],C (C: ≥0.1 and <1)
54.08,0.66,264.60,−10.28,CCCCCCCCCCOCCCCCCCC(=O)N(CCCN(C)C)C(CCCCCCCC)C(=O)NCCCCCC(=O)OC(CCCCCCCC)CCCCCCCC (stereo not shown) [Compound A41],C (C: ≥0.1 and <1)
95.23,0.19,90.78,−1.88,CCCCCCCCCCOCCCCCCCC(=O)N(CCCN(C)C)C(CCCCCCCC)C(=O)NCCCCCCCC (stereo not shown) [Compound A42],A (A: ≥2)
94.62,0.06,79.00,0.83,CCCCCCCCC(CCCCCC)COC(=O)CCCCCNC(=O)C(CCCCC)N(CCCN1CCCC1)C(=O)CCCCCC(=O)OCC(CCCCCC)CCCCCCCC (stereo not shown) [Compound A45],A (A: ≥2)
94.31,0.19,107.50,−0.55,CCCCCCCCC(CCCCCC)COC(=O)CCCCCNC(=O)C(CCCCC)N(CCCCN1CCCC1)C(=O)CCCCCC(=O)OCC(CCCCCC)CCCCCCCC (stereo not shown) [Compound A46],A (A: ≥2)
94.62,0.08,64.27,0.65,CCCCCCCCC(CCCCCCCC)OC(=O)CCCCCC(=O)N(CCCN(C)C)C(CCCCCCCC)C(=O)NCCCCCC(=O)OCCC12CC3CC(CC(C3)C1)C2 (stereo not shown) [Compound A48],A (A: ≥2)
85.90,0.15,104.5,−6.41,CCCCCCCC(C(=O)NCCCCCCCCCC(=O)OC(CCCCCC)CCCCCC)N(CCCN(CCO)CCO)C(=O)CCCCCCCCCC(=O)OC(CCCCCC)CCCCCC (stereo not shown) [Compound B2],A (A: ≥2)
79.83,0.306,85.75,−6.91,CCCCCCCCC(C(=O)NCCCCCCCCCC(=O)OCCCCCC)N(CCCN(CCO)CCO)C(=O)CCCCCCCCCC(=O)OC(CCCCCC)CCCCCC (stereo not shown) [Compound B3],A (A: ≥2)
96.14,0.159,72.08,10.58,CCCCCCCC(C(=O)NCCCCCCCCCC(=O)OC(CCCCCC)CCCCCC)N(CCCN(CCO)CCO)C(=O)CCCCCCCCCC(=O)OCC12CC3CC(CC(C3)C1)C2 (stereo not shown) [Compound B4],A (A: ≥2)
95.00,0.163,55.64,6.08,CCCCCCCC(C(=O)NCCCCCCCCCC(=O)OC(CCCCCC)CCCCCC)N(CCCN(CCO)CCO)C(=O)CCCCCCCCCC(=O)OCC1CC=CCC1 (stereo not shown) [Compound B5],A (A: ≥2)
75.47,0.183,61.81,−0.39,CCCCCCCC(C(=O)NCCCCCCCCCC(=O)OC(CCCCCC)CCCCCC)N(CCNCCO)C(=O)CCCCCCCCCC(=O)OC(CCCCCC)CCCCCC (stereo not shown) [Compound B6],A (A: ≥2)
85.36,0.116,58.86,−2.80,CCCCCCCC(C(=O)NCCCCCCCCCC(=O)OC(CCCCCC)CCCCCC)N(CCN(CO)CO)C(=O)CCCCCCCCCC(=O)OC(CCCCCC)CCCCCC (stereo not shown) [Compound B7],A (A: ≥2)
91.38,0.152,60.47,−7.30,CCCCCCCC(C(=O)NCCCCCCCCCC(=O)OC(CCCCCC)CCCCCC)N(CCCN(C)CCO)C(=O)CCCCCCCCCC(=O)OC(CCCCCC)CCCCCC (stereo not shown) [Compound B8],A (A: ≥2)
46.91,0.166,66.9,2.18,CCCCCCCC(C(=O)NCCCCCCCCCC(=O)OC(CCCCCC)CCCCCC)N(CCCN(CCO)C1CCC1)C(=O)CCCCCCCCCC(=O)OC(CCCCCC)CCCCCC (stereo not shown) [Compound B10],A (A: ≥2)
81.83,0.205,70.27,−9.69,CCCCCCCC(C(=O)NCCCCCCCCCC(=O)OC(CCCCCC)CCCCCC)N(CCN(CCO)C1CCC1)C(=O)CCCCCCCCCC(=O)OC(CCCCCC)CCCCCC (stereo not shown) [Compound B11],A (A: ≥2)
93.45,0.183,65.03,−9.02,CCCCCCCC(C(=O)NCCCCCCCCCC(=O)OC(CCCCCC)CCCCCC)N(CCCN(CCO)C1CCCC1)C(=O)CCCCCCCCCC(=O)OC(CCCCCC)CCCCCC (stereo not shown) [Compound B12],A (A: ≥2)
